Reference: ChEMBL document CHEMBL1144122, “New scalaranes from the nudibranch Glossodoris atromarginata and its sponge prey” (1999)
Active and inactive are the calls of the source. The rule behind the calls is not given here.

Tests used:
[1] = (§1) Cytotoxicity against human thyroid carcinoma cells assessed as mortality; assay type: functional
Homo sapiens = species: Homo sapiens; test: as §1; assay type: functional

SMILES | Activity [1] [%] | Activity (Homo sapiens)
CC1(C)CCC[C@]2(C)[C@H]3CC(=O)[C@]4(C)[C@@H]5C(=CC[C@H]4[C@]3(C)CC[C@@H]12)CO[C@H]5O | 25 | 
CC(=O)O[C@@H]1OC=C2[C@@H](OC(C)=O)C[C@H]3[C@]4(C)CC[C@H]5C(C)(C)CCC[C@]5(C)[C@H]4C[C@@H](O)[C@]3(C)[C@H]21 [HETERONEMIN] | 30 | 
CC1(C)CCC[C@]2(C)[C@H]3C[C@@H](O)[C@]4(C)[C@@H]5C(=CC[C@H]4[C@]3(C)CC[C@@H]12)CO[C@H]5O |  | inactive
